# Source: PMC12527922, “Cocaine chemogenetics blunts drug-seeking by synthetic physiology” (Nature, 2025)
# pEC50: −log10 of the molar value. Where “and” joins values, the source holds several entries; their conditions need not be identical. Identical values can stand only once.
# Target: coca-5HT3 (α7(L141G,G175K,Y210F,Y217F)–5HT3) (Homo sapiens, UniProt P36544, G175K/L141G/Y210F/Y217F)
# Test: Membrane potential assay, coca-5HT3 in HEK293
# Conditions: for Max normalized Response / Response: coca-5HT3; for Max normalized Response: ED Fig 3b
# [1] = membrane potential assay dose response
# [2] = coca5HT3, Choline Conc 1.37174 uM
# [3] = coca5HT3, Choline Conc 12.3457 uM
# [4] = coca5HT3, Choline Conc 37.037 uM
# [5] = coca5HT3, Choline Conc 111.111 uM
# [6] = coca5HT3, Choline Conc 333.333 uM
# coca-5HT3 (α7(L141G,G175K,Y210F,Y217F)–5HT3), sequence (P36544 23-224 L141G/G175K/Y210F/Y217F): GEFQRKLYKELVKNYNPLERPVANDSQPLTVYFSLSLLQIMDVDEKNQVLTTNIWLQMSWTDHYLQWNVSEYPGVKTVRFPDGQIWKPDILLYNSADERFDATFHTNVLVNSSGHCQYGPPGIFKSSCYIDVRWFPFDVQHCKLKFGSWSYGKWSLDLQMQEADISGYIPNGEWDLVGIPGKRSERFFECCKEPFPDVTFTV
# coca-5HT3 (α7(L141G,G175K,Y210F,Y217F)–5HT3), sequence (P23979 242-489, further chain): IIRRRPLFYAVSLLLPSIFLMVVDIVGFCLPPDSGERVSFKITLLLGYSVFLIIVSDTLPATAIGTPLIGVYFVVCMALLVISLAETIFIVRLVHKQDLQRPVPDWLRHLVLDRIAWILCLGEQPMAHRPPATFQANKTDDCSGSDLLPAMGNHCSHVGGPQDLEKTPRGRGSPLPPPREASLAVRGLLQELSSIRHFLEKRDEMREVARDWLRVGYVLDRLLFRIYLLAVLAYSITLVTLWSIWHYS
smiles,measurement,setting,value
C[N+]1(C)[C@@H]2C[C@@H](OC(=O)[C@H](CO)c3ccccc3)C[C@H]1[C@@H]1O[C@@H]12 [Methscopolamine],Max normalized Response,conc 0.137 uM,0.01611
same,Max normalized Response,conc 3.7 uM,0.08959
same,Max normalized Response,conc 11.1 uM,0.03432
same,Max normalized Response,conc 33.3 uM,0.1141
same,Max normalized Response,conc 100 uM,0.3973
C[N+]1(C)[C@@H]2CC[C@H]1C[C@@H](OC(=O)C(CO)c1ccccc1)C2 (stereo partly shown) [Methylatropine],response at coca-5HT3,between 10-100 µM,substantial response
same,Max normalized Response,conc 0.137 uM,0.09159
same,Max normalized Response,conc 3.7 uM,0.07315
same,Max normalized Response,conc 11.1 uM,0.365
same,Max normalized Response,conc 33.3 uM,0.7258
same,Max normalized Response,conc 100 uM,0.936
NC[C@H](O)c1ccc(O)c(O)c1 [Norepinephrine],Response,"conc 0.457247 uM, ED Fig 3a",0.151
same,Response,"conc 1.37174 uM, ED Fig 3a",0.081
same,Response,"conc 12.3457 uM, ED Fig 3a",0.077
same,Response,"conc 37.037 uM, ED Fig 3a",0.059
same,Response,"conc 111.111 uM, ED Fig 3a",0.059
same,Response,"conc 333.333 uM, ED Fig 3a",0.043
CC[N+]1(C)[C@@H]2CC(OC(=O)[C@H](CO)c3ccccc3)C[C@H]1[C@@H]1O[C@@H]12 (stereo partly shown) [Oxitroprium],Max normalized Response,conc 0.137 uM,0.04923
same,Max normalized Response,conc 3.7 uM,0.04777
same,Max normalized Response,conc 11.1 uM,0.1339
same,Max normalized Response,conc 33.3 uM,0.03611
same,Max normalized Response,conc 100 uM,0.1339
CCN(CC)CCOC(=O)c1ccc(N)cc1 [Procaine],Max normalized Response,conc 0.137 uM,0.07766
same,Max normalized Response,conc 3.7 uM,0.1325
same,Max normalized Response,conc 11.1 uM,0.1562
same,Max normalized Response,conc 33.3 uM,0.143
same,Max normalized Response,conc 100 uM,0.166
same,activation of coca-5HT3,up to 100 µM,did not activate
CN1[C@@H]2C[C@@H](OC(=O)[C@H](CO)c3ccccc3)C[C@H]1[C@@H]1O[C@@H]12 [Scopolamine],Max normalized Response,conc 0.137 uM,0.06195
same,Max normalized Response,conc 3.7 uM,0.06448
same,Max normalized Response,conc 11.1 uM,0.04953
same,Max normalized Response,conc 33.3 uM,0.06371
same,Max normalized Response,conc 100 uM,0.0598
NCCc1c[nH]c2ccc(O)cc12 [Serotonin],Response,"conc 1.37174 uM, ED Fig 3a",0.295
same,Response,"conc 12.3457 uM, ED Fig 3a",0.101
same,Response,"conc 37.037 uM, ED Fig 3a",0.082
same,Response,"conc 111.111 uM, ED Fig 3a",0.115
same,Response,"conc 333.333 uM, ED Fig 3a",0.156
same,Response,"conc 1000 uM, ED Fig 3a",0.112
C[N+]1(C)[C@@H]2C[C@@H](OC(=O)C(O)(c3cccs3)c3cccs3)C[C@H]1[C@@H]1O[C@@H]12 [Tiotropium],Max normalized Response,conc 0.137 uM,0.05284
same,Max normalized Response,conc 3.7 uM,0.03225
same,Max normalized Response,conc 11.1 uM,0.04379
same,Max normalized Response,conc 33.3 uM,0.159
same,Max normalized Response,conc 100 uM,0.2432
O=C(O[C@H]1C[C@H]2CC[C@@H](C1)[N+]21CCCC1)C(O)(c1ccccc1)c1ccccc1 [Trospium],Max normalized Response,conc 0.137 uM,0.127
same,Max normalized Response,conc 3.7 uM,0.2063
same,Max normalized Response,conc 11.1 uM,0.1005
same,Max normalized Response,conc 33.3 uM,0.1217
same,Max normalized Response,conc 100 uM,0.03704
Nc1ncnc2c1ncn2[C@@H]1O[C@H](CO)[C@@H](O)[C@H]1O [adenosine],Response,"conc 0.457247 uM, ED Fig 3a",0.126
same,Response,"conc 1.37174 uM, ED Fig 3a",0.045
same,Response,"conc 12.3457 uM, ED Fig 3a",0.079
same,Response,"conc 37.037 uM, ED Fig 3a",0.053
CC(N)Cc1ccccc1 (stereo not shown) [amphetamine],Response,"conc 0.0137 uM, ED Fig. 2c",0.05
same,Response,"conc 0.123 uM, ED Fig. 2c",0.058
same,Response,"conc 0.37 uM, ED Fig. 2c",0.049
same,Response,"conc 10 uM, ED Fig. 2c",0.028
same,Response,"conc 30 uM, ED Fig. 2c",0.055
same,activation of coca-5HT3,[1],did not activate
CN1[C@H]2CC[C@@H]1[C@@H](C(=O)O)[C@@H](OC(=O)c1ccccc1)C2 [benzoyl ecgonine],Response,"conc 0.0137174 uM, ED Fig. 2b",0.07
same,Response,"conc 0.123457 uM, ED Fig. 2b",0.088
same,Response,"conc 0.37037 uM, ED Fig. 2b",0.072
same,Response,"conc 1.11111 uM, ED Fig. 2b",0.062
same,Response,"conc 3.33333 uM, ED Fig. 2b",0.097
same,Response,"conc 10 uM, ED Fig. 2b",0.074
same,Response,"conc 30 uM, ED Fig. 2b",0.088
same,activation of coca-5HT3,[1],not activated
C[N+](C)(C)CCO [choline],EC50 relative to peak physiological levels,EC50 above peak physiological levels,about 100 fold
same,"Max normalized response, AVG",[2],0.0611
same,"Max normalized response, replicates",[2],0.1043 and 0.06655 and 0.04444 and 0.02913
same,"Response, dose-response replicates (DR 1-4)",[2],0.056 and 0.037 and 0.008 and 0.006
same,"Max normalized response, AVG",[3],0.06296
same,"Max normalized response, replicates",[3],0.05773 and 0.04496 and 0.02778 and 0.1214
same,"Response, dose-response replicates (DR 1-4)",[3],0.031 and 0.025 (2×) and 0.005
same,"Max normalized response, AVG",[4],0.0516
same,"Max normalized response, replicates",[4],0.04283 and 0.03237 and 0.07778 and 0.0534
same,"Response, dose-response replicates (DR 1-4)",[4],0.023 and 0.018 and 0.014 and 0.011
same,"Max normalized response, AVG",[5],0.04734
same,"Max normalized response, replicates",[5],0.03724 and 0.04317 and 0.05556 and 0.0534
same,"Response, dose-response replicates (DR 1-4)",[5],0.02 and 0.024 and 0.01 and 0.011
same,"Max normalized response, AVG",[6],0.07674
same,"Max normalized response, replicates",[6],0.0838 and 0.08993 and 0.05556 and 0.07767
same,"Response, dose-response replicates (DR 1-4)",[6],0.045 and 0.05 and 0.01 and 0.016
same,"Max normalized response, AVG","coca5HT3, Choline Conc 1000 uM",0.4005
same,"Max normalized response, replicates","coca5HT3, Choline Conc 1000 uM",0.4022 and 0.5288 and 0.3556 and 0.3155
same,"Response, dose-response replicates (DR 1-4)","coca5HT3, Choline Conc 1000 uM",0.216 and 0.294 and 0.064 and 0.065
same,"Max normalized response, AVG","coca5HT3, Choline Conc 3000 uM",1
same,"Max normalized response, replicates","coca5HT3, Choline Conc 3000 uM",1
same,"Response, dose-response replicates (DR 1-4)","coca5HT3, Choline Conc 3000 uM",0.537 and 0.556 and 0.18 and 0.206
same,max response of each dose-response replicate,"coca5HT3, Choline, used for normalization",0.537 and 0.556 and 0.18 and 0.206
same,pEC50,"half-maximum effective concentration (EC50), HEK293, fluorescence membrane potential assay",2.92
CC(=O)Oc1ccc2c3c1O[C@H]1[C@@H](OC(C)=O)C=C[C@H]4[C@@H](C2)N(C)CC[C@@]341 [heroin],Response,"conc 0.0137 uM, ED Fig. 2c",0.058
same,Response,"conc 0.123 uM, ED Fig. 2c",0.046
same,Response,"conc 0.37 uM, ED Fig. 2c",0.054
same,Response,"conc 10 uM, ED Fig. 2c",0.109
same,Response,"conc 30 uM, ED Fig. 2c",0.105
same,activation of coca-5HT3,[1],did not activate
